Where two headings read alike, the source gives them in different places.
Target: T1, prolyl endopeptidase (Sus scrofa, UniProt P23687)
T1 construct: porcine kidney enzyme which was prepared according to methods of Walter and Yoshimoto et al; from tissue; host or cells: porcine kidney
Assay: Prolyl endopeptidase-inhibitory activity in vitro (porcine kidney enzyme, Z-Gly-Pro-p-nitroanilide substrate)
Format: biochemical
Procedure: A test compound (2 mg) was dissolved in DMSO (2 ml) and diluted to appropriate concentrations with DMSO. Z-Gly-Pro-p-nitroanilide (8 mg), a substrate was dissolved in dioxane (5 ml), water (27 ml) and 0.2 M phosphate buffer (pH 7.8, 40 ml). The substrate solution ([…]) was mixed with an inhibitor solution (3 ml) and followed by addition of above mentioned porcine kidney enzyme solution ([…]). Immediately after the mixing the UV absorbance at 405 nm was detected. The mixture was incubated at 37° C. for 20 min. and the UV absorbance was checked. A standard curve of absorbance (OD) vs. p-nitroaniline concentration was used to relate the absorbance to amount of substrate hydrolyzed. […] The inhibiting activity was obtained following the equation below. The IC50 value was estimated from the inhibitor concentration vs. inhibitory activity curve.
The percent inhibitory activity (%)=(ΔODc -ΔODs)/ΔODc ×100
ΔODs : ΔOD for test sample

[1] = porcine kidney enzyme, pH 7.8, 37° C., 20 min
[2] = porcine kidney enzyme, pH 7.8, 37° C., 20 min, read-out: IC50 (converted)

T1 sequence (P23687 whole entry): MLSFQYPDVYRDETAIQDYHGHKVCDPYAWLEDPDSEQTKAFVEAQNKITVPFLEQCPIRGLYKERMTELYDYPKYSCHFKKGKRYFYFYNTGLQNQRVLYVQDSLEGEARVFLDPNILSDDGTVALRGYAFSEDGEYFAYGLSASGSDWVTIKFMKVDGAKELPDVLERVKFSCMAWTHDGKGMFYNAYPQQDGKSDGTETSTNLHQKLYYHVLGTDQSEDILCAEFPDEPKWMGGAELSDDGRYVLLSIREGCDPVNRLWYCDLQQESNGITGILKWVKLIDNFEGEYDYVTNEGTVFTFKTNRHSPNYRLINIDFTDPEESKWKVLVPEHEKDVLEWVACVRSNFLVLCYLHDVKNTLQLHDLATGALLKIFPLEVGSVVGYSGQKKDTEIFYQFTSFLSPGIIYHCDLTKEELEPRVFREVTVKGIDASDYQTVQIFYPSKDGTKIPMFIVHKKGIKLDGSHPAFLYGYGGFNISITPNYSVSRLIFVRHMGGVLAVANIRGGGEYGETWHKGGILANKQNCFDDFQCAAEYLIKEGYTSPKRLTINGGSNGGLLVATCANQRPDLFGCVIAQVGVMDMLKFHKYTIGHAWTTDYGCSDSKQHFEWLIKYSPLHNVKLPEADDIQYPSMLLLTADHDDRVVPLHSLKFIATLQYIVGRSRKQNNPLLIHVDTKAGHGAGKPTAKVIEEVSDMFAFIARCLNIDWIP

| Compound | IC50 | further results |
| --- | --- | --- |
| 2-[1-{1-(4-Phenylbutanoyl)indolin-2(S)-ylcarbonyl}pyrrolidin-2(S)-ylcarbonyl]oxazole [Example 24] | – | IC50 [1]: 0.0055 µg/mL |
| O=C(c1nccs1)[C@@H]1CCCN1C(=O)[C@@H]1C[C@@H](Sc2ccccc2)CN1C(=O)OCc1ccccc1 [Example 2, 2-[1-{1-Benzyloxycarbonyl-4(R)-phenylthiopyrrolidin-2(S)-ylcarbonyl}pyrrolidin-2(S)-ylcarbonyl]thiazole] | 4.79 nM | – |
| O=C(c1nccs1)[C@@H]1CCCN1C(=O)[C@@H]1CC2CCCCC2N1C(=O)OCc1ccccc1 (stereo partly drawn) [Example 6, 2-{1(1-Benzyloxycarbonyloctahydroindol-2(S)-ylcarbonyl)pyrrolidin-2(S)ylcarbonyl}thiazole] | 4.28 nM | – |
| O=C(CSCc1ccccc1)C1CCCC1C(=O)N1CCC[C@H]1C(=O)c1nccs1 (stereo partly drawn) [Example 15, 2-[1-{2-Benzylthioacetylcyclopentan-1-ylcarbonyl)pyrrolidin-2(S)-ylcarbonyl}thiazole] | – | IC50 [1]: 54.2 nM |
| O=C(c1nccs1)[C@@H]1CCCN1C(=O)[C@@H]1C[C@@H](Sc2ccccc2)CN1C(=O)CCCc1ccccc1 [Example 10, 2-[1-{1-(4-Phenylbutanoyl)-4(R)-phenylthiopyrrolidin-2(S)-ylcarbonyl}-pyrrolidin-2(S)-ylcarbonyl]thiazole] | 1.12 nM | – |
| O=C(c1nccs1)[C@@H]1CCCN1C(=O)[C@@H]1CCCN1C(=O)OCc1ccccc1 [Example 4, 2-{1-(1-Benzyloxycarbonylpyrrolidin-2(S)-ylcarbonyl)pyrrolidin-2(S)-ylcarbonyl}thiazole] | 5.8 nM | – |
| O=C(CSCc1ccccc1)C1CCCCC1C(=O)N1CCC[C@H]1C(=O)c1nc2ccccc2s1 (stereo partly drawn) [Example 22, 2-[1-(2-Benzylthioacetylcyclohexan-1-ylcarbonyl)pyrrolidin-2(S)-ylcarbonyl]benzothiazole] | 12.6 nM | – |
| O=C(c1cocn1)[C@@H]1CCCN1C(=O)[C@@H]1Cc2ccccc2N1C(=O)OCc1ccccc1 [Example 3, 4-{1-(1-Benzyloxycarbonylindolin-2(S)-ylcarbonyl)pyrrolidin2(S) -ylcarbonyl}oxazole] | 9.54 nM | – |
| O=C(c1nc2ccccc2s1)[C@@H]1CCCN1C(=O)[C@@H]1C[C@@H](Sc2ccccc2)CN1C(=O)OCc1ccccc1 [Example 20, 2-{1-(1-Benzyloxycarbonyl-4(R)-phenylthiopyrrolidin-2(S)-ylcarbonyl)pyrrolidin-2(S)-ylcarbonyl}benzothiazole] | 2.45 nM | – |
| O=C(c1cncs1)[C@@H]1CCCN1C(=O)[C@@H]1CCCN1C(=O)CCCc1ccccc1 [Example 33, 5-[1-{1-(4-Phenylbutanoyl)pyrrolidin-2(S)-ylcarbonyl}pyrrolidin-2(S)-ylcarbonyl]thiazole] | – | IC50 [1]: 0.275 µg/mL |
| O=C(c1ncc[nH]1)[C@@H]1CCCN1C(=O)[C@@H]1CCCN1C(=O)CCCc1ccccc1 [Example 28, 2-[1-{1-(4-Phenylbutanoyl)pyrrolidin-2(S)-ylcarbonyl}pyrrolidin-2(S)-ylcarbonyl]-1H-imidazole] | – | IC50 [2]: 6.24 nM |
| O=C(c1nc2ccccc2s1)[C@@H]1CCCN1C(=O)[C@@H]1Cc2ccccc2N1C(=O)OCc1ccccc1 [Example 18, 2-{1-(1-Benzyloxycarbonylindolin-2(S)-ylcarbonyl)pyrrolidin-2(S)-ylcarbonyl}benzothiazole] | 7.33 nM | – |
| COc1nccnc1C(=O)[C@@H]1CCCN1C(=O)[C@@H]1CCCN1C(=O)CCCc1ccccc1 [Example 40, 2-Methoxy-3-[1-{1-(4-phenylbutanoyl)pyrrolidine-2(S)-ylcarbonyl}pyrrolidin-2(S)-ylcarbonyl]pyrazine] | 33.3 nM | – |
| O=C(c1nccs1)[C@@H]1CCCN1C(=O)[C@@H]1CCCN1C(=O)CCCc1ccccc1 [Example 5, 2-[1-{1(4-Phenylbutanoyl)pyrrolidin-2(S)-ylcarbonyl}pyrrolidin-2(S)-ylcarbonyl]thiazole] | – | IC50 [1]: 0.00133 µg/mL |
| O=C(c1nc2ccccc2[nH]1)[C@@H]1CCCN1C(=O)[C@@H]1CCCN1C(=O)CCCc1ccccc1 [Example 29, 2-[1-{1-(4-Phenylbutanoyl)pyrrolidin-2(S)-ylcarbonyl}pyrrolidin-2(S)-ylcarbonyl]-1H-benzimidazole] | 3.82 nM | – |
| O=C(c1nc2ccccc2s1)[C@@H]1CCCN1C(=O)[C@@H]1CCCN1C(=O)OCc1ccccc1 [Example 17, 2-{1-(1-Benzyloxycarbonylpyrrolidin-2(S)-ylcarbonyl)pyrrolidin-2(S)-ylcarbonyl}benzothiazole] | 3.78 nM | – |
| O=C(CSCc1ccccc1)C1CCCCC1C(=O)N1CCC[C@H]1C(=O)c1nccs1 (stereo partly drawn) [Example 16, 2-[1-(2-Benzylthioacetylcyclohexan-1-ylcarbonyl)pyrrolidin-2(S)-ylcarbonyl]thiazole] | 53.7 nM | – |
| O=C(c1cccs1)[C@@H]1CCCN1C(=O)[C@@H]1CCCN1C(=O)CCCc1ccccc1 [Example 26, 2-[1-{1-(4-Phenylbutanoyl)pyrrolidin-2(S)-ylcarbonyl}pyrrolidin-2(S)-ylcarbonyl]thiophene] | – | IC50 [1]: 0.81 µg/mL |

| Compound | IC50 | further results |
| --- | --- | --- |
| O=C(c1ccccn1)[C@@H]1CCCN1C(=O)[C@@H]1CCCN1C(=O)CCCc1ccccc1 [Example 32, 2-[1-{1-(4-Phenylbutanoyl)pyrrolidin-2(S)-ylcarbonyl}pyrrolidin-2(S)-ylcarbonyl]pyridine] | 7.15 nM | – |
| 2-[1-{1-(4-Phenylbutanoyl)pyrrolidin-2(S)-ylcarbonyl}pyrrolidin-2(S)-ylcarbonyl]pyrazole [Example 35] | – | IC50 [1]: 0.046 µg/mL |
| 2-[1-{1-(4-Phenylbutanoyl)pyrrolidin-2(S)-ylcarbonyl}pyrrolidin-2(S)-ylcarbonyl]oxazole [Example 23] | – | IC50 [1]: 0.0032 µg/mL |
| O=C(c1nc[nH]n1)[C@@H]1CCCN1C(=O)[C@@H]1CCCN1C(=O)CCCc1ccccc1 [Example 34, 3-[1-{1-(4-Phenylbutanoyl)pyrrolidin-2(S)-ylcarbonyl}pyrrolidin-2(S)-ylcarbonyl]1,2,4-triazole] | 6.11 nM | – |
| O=C(c1nc2ccccc2[nH]1)[C@@H]1CCCN1C(=O)[C@@H]1CCCN1C(=O)OCc1ccccc1 [Example 39] | 7.61 nM | – |
| O=C(c1nc2ncccc2[nH]1)[C@@H]1CCCN1C(=O)[C@@H]1CCCN1C(=O)CCCc1ccccc1 [Example 38, 2-[1-{1-(4-Phenylbutanoyl)pyrrolidin-2(S)-ylcarbonyl}pyrrolidin-2(S)-ylcarbonyl]imidazo[4,5-b]pyridine] | 6.09 nM | – |
| O=C(c1nc2ccccc2s1)[C@@H]1CCCN1C(=O)[C@@H]1C[C@@H](Sc2ccccc2)CN1C(=O)CCCc1ccccc1 [Example 21, 2-[1-{1-(4-Phenylbutanoyl)-4(R)-phenylthiopyrrolidin-2(S)-ylcarbonyl}pyrrolidin-2(S)-ylcarbonyl]benzothiazole] | 1.8 nM | – |
| O=C(c1nccs1)[C@@H]1CCCN1C(=O)[C@@H]1CC2CCCCC2N1C(=O)CCCc1ccccc1 (stereo partly drawn) [Example 7, 2-[1-{1-(4-Phenylbutanoyl)octahydroindol-2(S)-ylcarbonyl}pyrrolidin-2(S)-ylcarbonyl]thiazole] | 2.4 nM | – |
| O=C(c1nc2ccccc2o1)[C@@H]1CCCN1C(=O)[C@@H]1CCCN1C(=O)CCCc1ccccc1 [Example 36, 2-[1-{1-(4-Phenylbutanoyl)pyrrolidin-2(S)-ylcarbonyl}pyrrolidin-2(S)-ylcarbonyl]benzoxazole] | 4.13 nM | – |
| O=C(c1cccs1)[C@@H]1CCCN1C(=O)[C@@H]1CCCN1C(=O)OCc1ccccc1 [Example 25] | – | IC50 [2]: 1380 nM |
| O=C(c1nc2ncccc2o1)[C@@H]1CCCN1C(=O)[C@@H]1CCCN1C(=O)CCCc1ccccc1 [Example 37, 2-[1 -{1-(4-Phenylbutanoyl)pyrrolidin-2(S)-ylcarbonyl}pyrrolidin-2(S)-ylcarbonyl]oxazolo[4,5-b]pyridine] | 4.78 nM | – |
| O=C(c1nc2ccccc2s1)[C@@H]1CCCN1C(=O)[C@@H]1Cc2ccccc2N1C(=O)CCCc1ccccc1 [Example 19, 2-[1-{1-(4-Phenylbutanoyl)indolin-2(S)-ylcarbonyl}pyrrolidin-2(S)-ylcarbonyl]benzothiazole] | 5.44 nM | – |
| O=C(c1cncnc1)[C@@H]1CCCN1C(=O)[C@@H]1CCCN1C(=O)CCCc1ccccc1 [Example 31, 5-[1-{1-(4-Phenylbutanoyl)pyrrolidin-2(S)-ylcarbonyl}pyrrolidin-2(S)-ylcarbonyl]pyrimidine] | 64.2 nM | – |
| O=C(c1nccs1)[C@@H]1CCCN1C(=O)[C@@H]1Cc2ccccc2N1C(=O)CCCc1ccccc1 [Example 9, 2-[1-{1-(4-Phenylbutanoyl)indolin-2(S)-ylcarbonyl}pyrrolidin-2(S)-ylcarbonyl]thiazole] | 5.49 nM | – |
| O=C(C1=NCCS1)[C@@H]1CCCN1C(=O)[C@@H]1CCCN1C(=O)CCCc1ccccc1 [Example 41, 2-[1-{1-(4-Phenylbutanoyl)pyrrolidin-2(S)-ylcarbonyl}pyrrolidin-2(S)-ylcarbonyl]thiazoline] | 3.98 nM | – |
| O=C(c1cccnc1)[C@@H]1CCCN1C(=O)[C@@H]1CCCN1C(=O)CCCc1ccccc1 [Example 30, 3-[1-{1-(4-Phenylbutanoyl)pyrrolidin-2(S)-ylcarbonyl}pyrrolidin-2(S)-ylcarbonyl]pyridine] | 2620 nM | – |
| Cc1nc(C(=O)[C@@H]2CCCN2C(=O)[C@@H]2CCCN2C(=O)CCCc2ccccc2)sc1C [Example 27, 4,5-Dimethyl-2-[1-{1-(4-phenylbutanoyl)pyrrolidin-2(S)-ylcarbonyl}pyrrolidin-2(S)-ylcarbonyl]thiazole] | 6.06 nM | – |

From US5547978A, “Derivatives of pyrrolidin-2-ylcarbonylheterocyclic compounds” (priority 1994, dated 1996)
